Where “and” joins values, the source holds several entries; their conditions need not be identical. Identical values can stand only once.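 How tested: cells in 96-well plates exposed to compound for 48 hours at five concentrations. Here, GI50 denotes the concentration required for 50% inhibition of growth. At the TGI there is no net growth.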 Where a SMILES comes first, the peptide text is derived from it. [ ]: non-standard residue; d: D form. The star is where a group is joined. NMeF = CN[CH](Cc1ccccc1)C(=O)O; NMeV = CN[CH](C(=O)O)C(C)C; Boc = CC(C)(C)OC(=O)*
Assays:
Assay in all cases: NCI anticancer screen, dose series, 48 h
UACC-62 melanoma = tested on: UACC-62 melanoma
NCI-H460 lung = tested on: NCI-H460 lung
UO-31 renal = tested on: UO-31 renal
HCT-116 colon = tested on: HCT-116 colon
IGROV1 ovarian = tested on: IGROV1 ovarian
NCI-H23 lung = tested on: NCI-H23 lung
COLO 205 colon = tested on: COLO 205 colon
TK-10 renal = tested on: TK-10 renal
DMS 273 small cell lung = tested on: DMS 273 small cell lung
SR leukemia = tested on: SR leukemia
EKVX NSCLC = tested on: EKVX NSCLC
ACHN renal = tested on: ACHN renal
KM20L2 colon = tested on: KM20L2 colon
K-562 leukemia = tested on: K-562 leukemia
NCI-H226 lung = tested on: NCI-H226 lung
SF-268 CNS = tested on: SF-268 CNS
SK-OV-3 ovarian = tested on: SK-OV-3 ovarian
HCC-2998 colon = tested on: HCC-2998 colon
SK-MEL-5 melanoma = tested on: SK-MEL-5 melanoma
MOLT-4 leukemia = tested on: MOLT-4 leukemia
SNB-19 CNS = tested on: SNB-19 CNS
UACC-257 melanoma = tested on: UACC-257 melanoma
HT29 colon = tested on: HT29 colon
KM12 colon = tested on: KM12 colon
M19-MEL melanoma = tested on: M19-MEL melanoma
LXFL 529 NSCLC = tested on: LXFL 529 NSCLC
SF-539 CNS = tested on: SF-539 CNS
RPMI-8226 leukemia = tested on: RPMI-8226 leukemia
NCI-H522 lung = tested on: NCI-H522 lung
OVCAR-8 ovarian = tested on: OVCAR-8 ovarian
DMS 114 small cell lung = tested on: DMS 114 small cell lung
SN12C renal = tested on: SN12C renal
786-0 renal = tested on: 786-0 renal
OVCAR-3 ovarian = tested on: OVCAR-3 ovarian
LOX IMVI melanoma = tested on: LOX IMVI melanoma
M14 melanoma = tested on: M14 melanoma
U251 CNS = tested on: U251 CNS
MALME-3M melanoma = tested on: MALME-3M melanoma
HCT-15 colon = tested on: HCT-15 colon
CCRF-CEM leukemia = tested on: CCRF-CEM leukemia
SW-620 colon = tested on: SW-620 colon
XF 498 CNS = tested on: XF 498 CNS
HL-60(TB) leukemia = tested on: HL-60(TB) leukemia
SK-MEL-28 melanoma = tested on: SK-MEL-28 melanoma
A549 NSCLC = tested on: A549 NSCLC
HOP-62 NSCLC = tested on: HOP-62 NSCLC
SF-295 CNS = tested on: SF-295 CNS
OVCAR-4 ovarian = tested on: OVCAR-4 ovarian
A498 renal = tested on: A498 renal
SNB-75 CNS = tested on: SNB-75 CNS
CAKI-1 renal = tested on: CAKI-1 renal
SNB-78 CNS = tested on: SNB-78 CNS
HOP-92 NSCLC = tested on: HOP-92 NSCLC
SK-MEL-2 melanoma = tested on: SK-MEL-2 melanoma
HOP-18 NSCLC = tested on: HOP-18 NSCLC
OVCAR-5 ovarian = tested on: OVCAR-5 ovarian
BT-549 breast = tested on: BT-549 breast
NCI/ADR-RES ovarian = tested on: NCI/ADR-RES ovarian
RXF 393 renal = tested on: RXF 393 renal
MDA-MB-231 breast = tested on: MDA-MB-231 breast
DU-145 prostate = tested on: DU-145 prostate
T-47D breast = tested on: T-47D breast
MDA-N = tested on: MDA-N
HS 578T breast = tested on: HS 578T breast
MCF7 breast = tested on: MCF7 breast
PC-3 prostate = tested on: PC-3 prostate
MDA-MB-435 = tested on: MDA-MB-435

## CC(C)C(NC(=O)OC(C)(C)C)C(=O)N(C)C(Cc1ccccc1)C(=O)N(C)C(C(=O)O)C(C)C (stereo not drawn) (Boc-Val-[NMeF]-[NMeV]-OH; configuration not given here)
UACC-62 melanoma
  TGI: > 100 µM
NCI-H460 lung
  TGI: > 100 µM
UO-31 renal
  TGI: > 100 µM
HCT-116 colon
  TGI: > 100 µM
IGROV1 ovarian
  TGI: > 100 µM
NCI-H23 lung
  TGI: > 100 µM
COLO 205 colon
  TGI: > 100 µM
TK-10 renal
  TGI: > 100 µM
DMS 273 small cell lung
  TGI: > 100 µM
SR leukemia
  TGI: > 100 µM
EKVX NSCLC
  TGI: > 100 µM
ACHN renal
  GI50: 23.1 µM and > 100 µM
  TGI: 71 µM and > 100 µM
KM20L2 colon
  TGI: > 100 µM
K-562 leukemia
  TGI: > 100 µM
NCI-H226 lung
  TGI: > 100 µM
SF-268 CNS
  TGI: > 100 µM
SK-OV-3 ovarian
  TGI: > 100 µM
HCC-2998 colon
  TGI: > 100 µM
SK-MEL-5 melanoma
  TGI: > 100 µM
MOLT-4 leukemia
  TGI: > 100 µM
SNB-19 CNS
  TGI: > 100 µM
UACC-257 melanoma
  TGI: > 100 µM
HT29 colon
  TGI: > 100 µM
KM12 colon
  TGI: > 100 µM
M19-MEL melanoma
  TGI: > 100 µM
LXFL 529 NSCLC
  TGI: > 100 µM
SF-539 CNS
  TGI: > 100 µM
RPMI-8226 leukemia
  TGI: > 100 µM
NCI-H522 lung
  TGI: > 100 µM
OVCAR-8 ovarian
  TGI: > 100 µM
DMS 114 small cell lung
  TGI: > 100 µM
SN12C renal
  TGI: > 100 µM
786-0 renal
  TGI: > 100 µM
OVCAR-3 ovarian
  TGI: > 100 µM
LOX IMVI melanoma
  TGI: > 100 µM
M14 melanoma
  TGI: > 100 µM
U251 CNS
  TGI: > 100 µM
MALME-3M melanoma
  TGI: > 100 µM
HCT-15 colon
  TGI: > 100 µM
CCRF-CEM leukemia
  TGI: > 100 µM
SW-620 colon
  TGI: > 100 µM
XF 498 CNS
  TGI: > 100 µM
HL-60(TB) leukemia
  TGI: > 100 µM
SK-MEL-28 melanoma
  TGI: > 100 µM
A549 NSCLC
  TGI: > 100 µM
HOP-62 NSCLC
  TGI: > 100 µM
SF-295 CNS
  TGI: > 100 µM

## CC1(C)C(=O)N(CCCCCCN2C(=O)C(C)(C)c3ccccc32)c2ccccc21
OVCAR-4 ovarian
  TGI: > 100 µM
UACC-62 melanoma
  TGI: 79.8 µM
A498 renal
  TGI: > 100 µM
NCI-H460 lung
  TGI: > 100 µM
UO-31 renal
  TGI: 92.6 µM
HCT-116 colon
  TGI: 42.4 µM
IGROV1 ovarian
  TGI: > 100 µM
SNB-75 CNS
  TGI: > 100 µM
NCI-H23 lung
  TGI: > 100 µM
COLO 205 colon
  TGI: 55.2 µM
TK-10 renal
  TGI: > 100 µM
CAKI-1 renal
  TGI: > 100 µM
DMS 273 small cell lung
  TGI: > 100 µM
EKVX NSCLC
  TGI: > 100 µM
ACHN renal
  TGI: 97 µM
SNB-78 CNS
  TGI: > 100 µM
KM20L2 colon
  TGI: > 100 µM
K-562 leukemia
  TGI: 55.4 µM
NCI-H226 lung
  TGI: 87.2 µM
SF-268 CNS
  TGI: > 100 µM
SK-OV-3 ovarian
  TGI: > 100 µM
HCC-2998 colon
  TGI: > 100 µM
SK-MEL-5 melanoma
  TGI: 33.5 µM
MOLT-4 leukemia
  TGI: 60 µM
SNB-19 CNS
  TGI: > 100 µM
UACC-257 melanoma
  TGI: 52 µM
HT29 colon
  TGI: 43.5 µM
HOP-92 NSCLC
  TGI: > 100 µM
KM12 colon
  TGI: > 100 µM
M19-MEL melanoma
  TGI: 65.2 µM
LXFL 529 NSCLC
  TGI: > 100 µM
SF-539 CNS
  TGI: > 100 µM
RPMI-8226 leukemia
  TGI: 45.1 µM
OVCAR-8 ovarian
  TGI: > 100 µM
SK-MEL-2 melanoma
  TGI: > 100 µM
DMS 114 small cell lung
  TGI: 43.4 µM
SN12C renal
  TGI: > 100 µM
786-0 renal
  TGI: 40.8 µM
OVCAR-3 ovarian
  TGI: 77.8 µM
LOX IMVI melanoma
  TGI: 43.5 µM
M14 melanoma
  TGI: 87.4 µM
U251 CNS
  TGI: > 100 µM
MALME-3M melanoma
  TGI: 75.8 µM
HOP-18 NSCLC
  TGI: > 100 µM
HCT-15 colon
  TGI: > 100 µM
CCRF-CEM leukemia
  TGI: 47.5 µM
SW-620 colon
  TGI: 30.3 µM
XF 498 CNS
  TGI: 53.6 µM
HL-60(TB) leukemia
  TGI: 19.7 µM
SK-MEL-28 melanoma
  TGI: > 100 µM
OVCAR-5 ovarian
  TGI: > 100 µM
A549 NSCLC
  TGI: > 100 µM
HOP-62 NSCLC
  TGI: > 100 µM
SF-295 CNS
  TGI: > 100 µM

## CCOP(C)(=O)C(N)Cc1ccc(OC)c(OC)c1 (configuration not stated)
OVCAR-4 ovarian
  TGI: > 100 µM
UACC-62 melanoma
  TGI: > 100 µM
BT-549 breast
  TGI: > 100 µM
A498 renal
  TGI: > 100 µM
NCI-H460 lung
  TGI: > 100 µM
UO-31 renal
  TGI: > 100 µM
HCT-116 colon
  TGI: > 100 µM
IGROV1 ovarian
  TGI: > 100 µM
SNB-75 CNS
  TGI: > 100 µM
NCI/ADR-RES ovarian
  TGI: > 100 µM
RXF 393 renal
  TGI: > 100 µM
NCI-H23 lung
  TGI: > 100 µM
COLO 205 colon
  TGI: > 100 µM
TK-10 renal
  TGI: > 100 µM
CAKI-1 renal
  TGI: > 100 µM
SR leukemia
  TGI: > 100 µM
EKVX NSCLC
  TGI: > 100 µM
ACHN renal
  TGI: > 100 µM
K-562 leukemia
  TGI: > 100 µM
NCI-H226 lung
  TGI: > 100 µM
SF-268 CNS
  TGI: > 100 µM
SK-OV-3 ovarian
  TGI: > 100 µM
HCC-2998 colon
  TGI: > 100 µM
SK-MEL-5 melanoma
  TGI: > 100 µM
MDA-MB-231 breast
  TGI: > 100 µM
DU-145 prostate
  TGI: > 100 µM
MOLT-4 leukemia
  TGI: > 100 µM
SNB-19 CNS
  TGI: > 100 µM
T-47D breast
  TGI: > 100 µM
HT29 colon
  TGI: > 100 µM
HOP-92 NSCLC
  TGI: > 100 µM
SF-539 CNS
  TGI: > 100 µM
RPMI-8226 leukemia
  TGI: > 100 µM
NCI-H522 lung
  TGI: > 100 µM
OVCAR-8 ovarian
  TGI: > 100 µM
MDA-N
  TGI: > 100 µM
SN12C renal
  TGI: > 100 µM
786-0 renal
  TGI: > 100 µM
HS 578T breast
  TGI: > 100 µM
OVCAR-3 ovarian
  TGI: > 100 µM
LOX IMVI melanoma
  TGI: > 100 µM
M14 melanoma
  TGI: > 100 µM
MCF7 breast
  TGI: > 100 µM
U251 CNS
  TGI: > 100 µM
MALME-3M melanoma
  TGI: > 100 µM
PC-3 prostate
  TGI: > 100 µM
HCT-15 colon
  TGI: > 100 µM
CCRF-CEM leukemia
  TGI: > 100 µM
SW-620 colon
  TGI: > 100 µM
HL-60(TB) leukemia
  TGI: > 100 µM
SK-MEL-28 melanoma
  TGI: > 100 µM
A549 NSCLC
  TGI: > 100 µM
HOP-62 NSCLC
  TGI: > 100 µM
SF-295 CNS
  TGI: > 100 µM
MDA-MB-435
  TGI: > 100 µM

Reference: PubChem BioAssay (NCI)
